According to EP4458804A1, “METHOD FOR PRODUCING AN OBJECT, PHENALEN-1-ONE COMPOUND AND USE THEREOF” (TriOptoTec GmbH, priority 2023, dated 2024):

Tests used:
[1] = Two-component system (kit of parts): impregnation of TPU films, visual colouring and resistance to rubbing/washing (Beispiel 6a/6b); type: physicochemical; conditions: TPU Folien; 2K-System Beispiel 6a (Aceton/Isopropanol)
Text: Um eine Mehrkomponenten-System bereitzustellen, bei dem vorzugsweise flüchtigere Hilfskomponenten, die gegebenenfalls regelmäßiger im Prozess ergänzt werden müssen, in einer separaten Komponente bereitgestellt werden können, wurde zunächst folgendes 2K-System getestet.
Grundkomponente (A): Eine Mischung aus 40,0% w/w Aceton, 30,0% w/w Isopropanol und […] w/w Wasser wurden homogen vermengt. Die Mischung war dicht verschlossen > 12 Monate bei Raumtemperatur lagerbar.
Zusatzkomponente (B): Eine Mischung aus 3,0% w/w Phenoxyethanol, 3,0% w/w EDTA und 0,1 bis 2,0 % Photokatalysator in Wasser wurden homogen verrührt. Die Mischung war dicht verschlossen in dunklen Flaschen > 6 Monate bei Raumtemperatur lagerbar.
Beide Lösungen wurden vor dem Prozess zu gleichen Teilen gemischt, gefolgt von einer 1:5 Verdünnung mit Wasser. Nach guter Durchmischung war die Lösung gebrauchsfertig.
Bei F-64a und F-73 war eine schwache Gelb- bzw.
Grundkomponente (A) enthielt eine Mischung aus 30,0% w/w Dimethylsuccinat, 33,0% w/w 1,2-Propandiol, 12,0% w/w Tween 20 und 25,0 % Wasser.
Zusatzkomponente (B) enthielt eine Mischung aus 2,0 Gew.-% Phenoxyethanol, 2,0 Gew.-% EDTA und 0,1 Gew.-% bis 1,6 Gew.-% Photokatalysator, jeweils bezogen auf das Gesamtgewicht der Zusatzkomponente (B), wobei die entsprechenden Bestandteile in Wasser gelöst wurden und anschließend homogen verrührt wurden.
Die Komponenten wurden vor Gebrauch im Verhältnis A zu B 2:1 gemischt, gefolgt von einer 1:1 Verdünnung mit Wasser. Nach guter Durchmischung war die Lösung gebrauchsfertig.

[2] = test system: S.aureus ATCC 6538; assay: Antibacterial activity of impregnated films, modified ISO 22196 with illumination (Beispiele 11-16, 25); type: cell-based
Text: (§1) Die Bestimmung der antimikrobiellen Aktivität erfolgte nach einer modifizierten Version der ISO 22196:2011-08 ("Messung von antibakterieller Aktivität auf Kunststoff- und anderen porenfreien Oberflächen", Ausgabedatum: 2011-08).
(§2) Bei der Testdurchführung wurde ein dünner Flüssigkeitsfilm, in dem die Bakterien enthalten sind (1,25 x 10^4 /cm^2), direkt auf die Probenkörper (3 x 3 cm) aufgebracht. Direkt nach Beimpfung wurden von der Nullprobe die Bakterien von den Probenkörperoberflächen mittels Ultraschall und Vortexen abgelöst und die Keimzahl (KBE (engl. CFU), Kolonie-bildende Einheit) bestimmt (t0-Wert).
(§3) Nach 4h wurden überlebende Bakterien von den Probenkörperoberflächen mittels Ultraschall und Vortexen abgelöst und die Keimzahl bestimmt (t4-Wert).
(§4) Im Unterschied zu der in der ISO 22196:2011-08 beschreibenen Methode wurde das Inokulum nicht mit einer Folie abgedeckt und die Inkubationszeit wurde von 24 auf 4 Stunden reduziert. Weiterhin wurden die Probenkörper der Proben 3 und 4 mit Licht der Intensität 20mW/cm2 für 10min belichtet, um eine biozide Wirkung nach Bestrahlung mit elektromagnetischer Strahlung zu bestimmen.
(§5) Verwendet wurden TPU Folienstücke, die nach dem in Beispiel 4 beschriebenen Verfahren mit Rezeptur 1 behandelt wurden. Rezeptur 1 wurde hergestellt nach Beispiel 2. […] Der Test wurde in Anlehnung an ISO 22196 nach oben beschriebener Methode durchgeführt.
TPU-Folienstücke wurden ebenfalls nach dem in Beispiel 4 beschriebenen Verfahren mit verschiedenen Rezepturen behandelt, die gemäß Beispiel 2 hergestellt wurden. Die Farbstoffkonzentration in der Imprägnierlösung betrug jeweils 1 mM F-24b. Der Test wurde in Anlehnung an ISO 22196 nach oben beschriebener Methode durchgeführt.
Die Farbstoffkonzentration in der Imprägnierlösung betrug jeweils 1 mM.
Die Photokatalysator-Konzentration von F-24b wurde variiert.
Es wurde ein Bakterientest in Anlehnung an ISO 22196 nach oben beschriebener Methode durchgeführt.

[3] = test system: Acinetobacter pitii; assay: Antibacterial activity of impregnated films, modified ISO 22196 with illumination (Beispiel 12); type: cell-based; conditions: TPU Folie, Rezeptur 1, 1 mM F-24b; Licht 20mW/cm2 für 10min; Gram-negativ
Text: as §1, §2, §3, §4, §5

[4] = test system: E.coli 10536; assay: as above; type: cell-based; conditions: TPU Folie, Rezeptur 1, 1 mM F-24b; Licht 20mW/cm2 für 10min; Gram-negativ
Text: as §1, §2, §3, §4, §5

[5] = test system: S.enterica; assay: as above; type: cell-based; conditions: TPU Folie, Rezeptur 1, 1 mM F-24b; Licht 20mW/cm2 für 10min; Gram-negativ
Text: as §1, §2, §3, §4, §5

[6] = test system: S. aureus; assay: Bactericidal effect after leaching/washing stress B and C (Beispiel 18), modified ISO 22196; type: cell-based; conditions: TPU film, Rezeptur 1, 1 mM
Text: as §1, §2, §3, §4
Um die Haltbarkeit des Photokatalysators innerhalb der Folie bzw. dessen Auswaschen gegen gängige Reinigungsmittel zu untersuchen, wurden damit Immersionstest in Wasser und 70% Isopropanol durchgeführt.
Die Folien wurden anschließend mit dem unter B) und C) beschrieben Belastungsverfahren mit den in den Tabellen gezeigten Medien behandelt und in ihrer Wirksamkeit vor/nach Belastung verglichen.

[7] = test system: S. aureus; assay: Bactericidal effect after tempering (Beispiel 19), modified ISO 22196; type: cell-based; conditions: TPU film, Rezeptur 1, 1 mM
Text: as §1, §2, §3, §4
Weiterhin wurde die Belastbarkeit des Photokatalysators in der Folie mit zusätzlichen Tests wie Tempern bei 80°C und Dampfsterilisation bei 121°C untersucht. […]

[8] = test system: S. aureus; assay: Bactericidal effect after steam sterilisation (Beispiel 20), modified ISO 22196; type: cell-based; conditions: TPU Folie, Rezeptur 1, 1 mM F-24b; after Dampfsterilisation 121°C, 2 h
Text: as §1, §2, §3, §4
Weiterhin wurde die Belastbarkeit des Photokatalysators in der Folie mit zusätzlichen Tests wie Tempern bei 80°C und Dampfsterilisation bei 121°C untersucht.

[9] = Comparative examples 23-25: impregnation of unsuitable plastics or with a fluorescent dye, visual evaluation; type: physicochemical; conditions: 0,2 mm starke Polycarbonatfolien; 60 min Einwirkzeit
Protocol: Die Farbstoffkonzentration in der Imprägnierlösung betrug jeweils 1 mM bei Phenalen-1-on- und Curcuminderivaten, 0,1 mM bei Prophycenderivaten.
Es wurden 0,2 mm starke Polycarbonatfolien eingesetzt und mit Imprägnierlösungen enthaltend die Photokatalysatoren F-24b, F-64a oder F-73 behandelt.
Es wurden TPU Folien eingesetzt und mit einer Imprägnierlösung enthaltend den Farbstoff 2-Chloro-6-(3-hydroxypropylamino)-1-phenalenon (CAS 113722-81-9) behandelt.

[10] = test system: S.aureus ATCC 6538; assay: Antibacterial activity of impregnated films, modified ISO 22196 with illumination (Beispiele 11-16, 25); type: cell-based; conditions: Beispiel 14; TPU film; Rezeptur 1 (nach Beispiel 1); 1 mM photocatalyst in impregnation solution; light 20mW/cm2 10min
[11] = test system: verschiedene Virusstämme; assay: Antiviral activity of impregnated films following ISO 21702 with illumination (Beispiel 17); conditions: TPU film, Rezeptur 1, 1 mM, light 20mW/cm^2 for 83 min

Compound: CC(C)(O)c1cc[n+](CC2=Cc3cccc4cccc(c34)C2=O)cc1 [F-24b]
- Imprägnierung / Färbung der Folie [1]: mit den vorherigen Daten vergleichbar
- Log10 Reduktion Hauptprobe ([2]; Beispiel 13, TPU film, Rezeptur 1 nach Beispiel 2, 1 mM in impregnation solution, light 20mW/cm2 10min): 4,0 ± 0,3 log10
- Log10 Reduktion Hauptprobe ([2]; Beispiel 13, TPU film, Rezeptur 2 nach Beispiel 2, 1 mM in impregnation solution, light 20mW/cm2 10min): 1,8 ± 1,3 log10
- Log10 Reduktion Hauptprobe ([2]; Beispiel 13, TPU film, Rezeptur 3 nach Beispiel 2, 1 mM in impregnation solution, light 20mW/cm2 10min): 4,2 ± 0,8 log10
- Log10 Reduktion Hauptprobe ([2]; Beispiel 13, TPU film, Rezeptur 8 nach Beispiel 3, 1 mM in impregnation solution, light 20mW/cm2 10min): 3,5 ± 0,5 log10
- Log10 Reduktion Hauptprobe ([2]; Beispiel 15, TPU film, Rezeptur 1, photocatalyst concentration 0,5 mM): 2,5 ± 1,4 log10
- Log10 Reduktion Hauptprobe ([2]; Beispiel 15, TPU film, Rezeptur 1, photocatalyst concentration 0,25 mM): 2,8 ± 1,3 log10
- Log10 Reduktion Hauptprobe ([2]; Beispiel 15, TPU film, Rezeptur 1, photocatalyst concentration 1 mM): 3,5 ± 0,5 log10
- Log10 Reduktion Hauptprobe ([2]; Beispiel 16, film material CPI (Polyimid), Rezeptur 1, 1 mM): 3,0 ± 0,1 log10
- Log10 Reduktion Hauptprobe ([2]; Beispiel 16, film material Nitril, Rezeptur 1, 1 mM): 3,8 ± 0,3 log10
- Log10 Reduktion Hauptprobe ([2]; Beispiel 16, film material PET-G, Rezeptur 1, 1 mM): 4,0 ± 0,1 log10
- Log10 Reduktion Hauptprobe ([2]; Beispiel 16, film material PVC, Rezeptur 1, 1 mM): 3,9 ± 0,8 log10
- Log10 Reduktion Hauptprobe ([2]; Beispiel 16, film material Silikon, Rezeptur 1, 1 mM): 3,4 ± 0,1 log10
- Log10 Reduktion Hauptprobe ([2]; Beispiel 16, film material Surlyn, Rezeptur 1, 1 mM): 3,6 ± 0,5 log10
- Log10 Reduktion Hauptprobe ([2]; Beispiel 16, film material TPU, Rezeptur 1, 1 mM): 4,0 ± 0,3 log10
- Log10 Reduktion Hauptprobe ([2]; TPU Folie, Rezeptur 1, 1 mM F-24b, Licht 20mW/cm2 für 10min, Gram-positiv): 4,0 ± 0,3 log10
- Log10 Reduktion Hauptprobe [3]: 3,0 ± 0,7 log10
- Log10 Reduktion Hauptprobe [4]: 4,8 ± 0,4 log10
- Log10 Reduktion Hauptprobe [5]: 4,2 ± 0,6 log10
- Log10 Reduktion Hauptprobe ([6]; After Auswaschen nach DIN EN 16105, procedure B), Wasser (dest.)): 1,9 ± 0,5 log10
- Log10 Reduktion Hauptprobe ([6]; After Screening Test - Immersion, procedure A), 70% Isopropanol): 1,9 ± 0,6 log10
- Log10 Reduktion Hauptprobe ([6]; After Screening Test - Immersion, procedure A), Wasser (dest.)): 3,3 ± 0,7 log10
- Log10 Reduktion Hauptprobe ([6]; After Washability nach DIN EN ISO 11998, procedure C), cleaner Neutraldesinfizierend): 4,5 ± 0,6 log10
- Log10 Reduktion Hauptprobe ([6]; After Washability nach DIN EN ISO 11998, procedure C), cleaner Sauer-oxidierend): 4,8 ± 0,3 log10
- Log10 Reduktion Hauptprobe ([7]; After 1 Woche 80°C Tempern): 3,0 ± 1,1 log10
- Log10 Reduktion Hauptprobe ([7]; After 1 h 80 °C Tempern): 4,1 ± 0,1 log10
- Log10 Reduktion Hauptprobe [8]: 1,5 ± 0,3 log10
- Verfärbung [9]: keine Verfärbung
- Log10 Reduktion Hauptprobe [10]: 4,0 ± 0,3 log10
- Log10 Reduktion Hauptprobe ([11]; Virus: Influenza A Virus (H1N1)): 2,5 ± 0,5 log10
- Log10 Reduktion Hauptprobe ([11]; Virus: Modified Vaccinia Virus Ankara (MVA)): 4,6 ± 0,6 log10
